# Data as given in patent publication US8735444B2, “Fluorinated rhodamines as photostable fluorescent dyes for labelling and imaging techniques” (Max-Planck-Gesellschaft zur Foerderung der Wissenschaften …, priority 2009, dated 2014).
# Like-named read-outs stand apart in the source and are kept apart here. Marks after values point to notes of the source that are not given here.
# Experiments:
# [1] = Spectral properties of the fluorinated rhodamines (absorption, emission, quantum yield, lifetime); format: physicochemical
# Source text: Extinction coefficients (of the long wavelength maximum) which are lower than ca. 8×10^4 M^−1 cm^−1 indicate the presence of the closed non-fluorescent form.
# [2] = tested on: living mammalian cells (PtK2); assay: Membrane-permeation experiments in living cells, epifluorescence microscope; format: cell-based; conditions: 15 minutes
# Procedure: FIG. 9. Membrane-permeation experiments of the presented dyes. Living mammalian cells (PtK2) were incubated for 15 minutes with a 50 μg dye/ml solution. The subcellular localization of the dye was imaged in an epifluorescence microscope. A: 46-H—CH2 CF3—H—H (16); B: 42-COOH (15); C: 23; D: 37-Me-Me-H (27); E: 42-H (14)-methylester; F: 33-H—H (18).
# The most important prerequisite for fluorophores used in these labeling strategies is that sufficient amounts of it need to pass cellular membrane(s) to reach the target protein. In order to asses the permeability of the cell membrane to the fluorescent dyes described in the presented invention, living mammalian cells (PtK2) previously grown overnight on cover slips, were first subjected to either 500 μg dye/ml or 50 μg dye/ml in growth medium for 15 minutes. (The amount of dye used for labeling of SNAP-fusion proteins is below 5 μg dye/ml.) Then, the cells were washed with growth medium (without dye) for 15 minutes, and imaged using an epifluorescence microscope.
# [3] = Photoresistance in aqueous solutions irradiated with 488 nm light (3 W/cm^2); format: physicochemical; conditions: for change in emission on irradiation: colored water solutions, several hours, 488 nm line of an Argon laser
# Source text: The compounds also display an outstanding photostability when irradiated for a prolonged time. […] The initial absorption at the irradiation wavelength was the same for all solutions. […] After two hours of irradiation, compounds 14 and 15 retain more than 50% of the initial emission intensity and compound 14a has about 90% of the initial signal left.
# FIG. 2. Photoresistance of selected compounds (14-17, 14a, and 16a in Table 2), and some commercially available fluorophores with the similar spectral properties (Alexa Fluor 488®, Rhodamine Green®, Oregon Green 488®, and Fluorescein) in aqueous solutions irradiated with 488 nm light (3 W/cm^2)
# [4] = Ground state depletion (GSDIM) pump-probe measurements in PVA matrix; format: physicochemical; conditions: for λem / λex: PVA matrix table; for Γfl, remaining fluorescence after 5 measurement cycles / Rfl, t=0, residual fluorescence after the pump-pulse: PVA matrix; for Γfl, remaining fluorescence after 5 measurement cycles: at one spot with the given power density; for Rfl, t=0, residual fluorescence after the pump-pulse: pump-pulse power density per dye 14-110 kW/cm^2
# Source text: In this method, “off” and “on” switching of the fluorescence is achieved by transiently shelving the fluorophores into a meta-stable dark state. Upon the return of only a few isolated single molecules to the fluorescent singlet state, positions of these single light emitting spots can be imaged on a camera and localized with high precision. Upon repeating this procedure and acquiring many pictures, a super-resolution image can be reconstructed from the localized positions. A prerequisite of this method is that >70% of the ensemble of the applied fluorescent dyes can be shelved into a dark state at a time (to ensure the detection of isolated fluorescent spots at a time in a densely labeled sample) and that the fluorophores are bright enough, i.e., that they emit enough photons while being in the singlet on-state (to ensure high precision of localization).
# Switching off of the laser leads to a recovery of the fluorescence ensemble within a characteristic recovery time of 150-450 ms (Table 5), indicating the shelving into a metastable dark state. The measurements were performed in a pump-probe mode, i.e., the residual level of fluorescence was probed with I<100 W/cm^2 for 0.5 ms after strong irradiation for 10 ms with the given laser intensity in Table 5.
# Furthermore, recovery of the fluorescence can be accelerated by addition of UV light, which leads to an optically-induced depopulation of the dark states. Already 2-3 kW/cm^2 of 375 nm light recovers the fluorescence within an irradiation period of 0.5 ms. […] The accelerated recovery is important for samples with low density of labels, where the addition of UV light and thus acceleration of the return from a dark state helps to accelerate image acquisition. Photostabilities of the studied fluorescent dyes under the GSDIM conditions are different: 15-50 pump-probe cycles with a pump intensity of 14-110 kW/cm^2 bleach 30-95% of the whole ensemble.
# [5] = Fluorescence correlation spectroscopy (FCS) in aqueous solutions; format: physicochemical; conditions: aqueous solution, intensity range 0.1-2.0 MW/cm^2
# Source text: FIG. 10. FCS curves obtained from Rh110-CO2 (left plot) and compound 17 (right plot), at low (0.1 MW/cm^2) and high (2 MW/cm^2) excitation intensity (dots: experimental data; lines: best fits).
# In combination with modern highly sensitive detection technologies recently developed, the observation of a single or a few molecules has become readily available. Several techniques based on these measurements [such as the fluorescence fluctuation spectroscopy and fluorescence correlation spectroscopy (FCS)] advantageously reveal molecular properties otherwise hidden by averaging the ensemble. A common requirement for experiments involving a few or single molecules is the use of fluorescent dyes with high photostability especially at high excitation intensities of >100 kW/cm^2. For biological applications the use of water as a solvent is almost imperative. Low solubility in water is often associated with a high bleaching ratio, or lower fluorescence quantum yield in aqueous medium compared with that in organic solvents. […]
# The excitation intensity of 115 kW/cm^2 (a value normally used in routinely FCS measurements) and at an excitation intensity of about an order of magnitude higher (2 MW/cm^2) have been used. […] An increase in the fraction of molecules in the triplet state can also be detected. […]
# [6] = cited from earlier work; for Photobleaching quantum yields: in water, low light intensities (up to 10^3 W/cm^2)
# [7] = set-up: ε × 10^−4: unit not given beside the values; conditions: cited from earlier work
# [8] = solvent not stated, spectra pH-dependent at pH < 5
compound,measurement,setting,value
"O=C(O)c1ccccc1-c1c2ccc(=NCC(F)(F)F)c(S(=O)(=O)O)c-2oc2c(S(=O)(=O)O)c(NCC(F)(F)F)ccc12 [Compound 16, 4,5-Disulfo-N,N′-bis(2,2,2-trifluoroethyl)rhodamine]",ABSORPTION λMAX,[1]; aqueous buffer at pH 7,499 nm
same,EMISSION λMAX,[1]; aqueous buffer at pH 7,520 nm
same,ΦFL,[1]; aqueous buffer at pH 7,0.88
same,τFL,[1]; aqueous buffer at pH 7,3.8 ns
same,ABSORPTION ε,[1]; methanol,87000 M⁻¹ cm⁻¹
same,ABSORPTION λMAX,[1]; methanol,507 nm
same,EMISSION λMAX,[1]; methanol,524 nm
same,Structures stained in living cells,[2]; 50 μg dye/ml,Dim cytoplasmatic stain with bright
same,Structures stained in living cells,[2]; 500 μg dye/ml,Dim cellular stain with brightly
same,change in emission on irradiation,[3],without any significant changes in their emission
"2,7-Difluoro-N,N′-bis(2,2,2-trifluoroethyl)-4,5-disulforhodamine [Compound 20]",ABSORPTION ε,[1]; aqueous buffer at pH 7,54000 M⁻¹ cm⁻¹
same,ABSORPTION λMAX,[1]; aqueous buffer at pH 7,506^a nm
same,EMISSION λMAX,[1]; aqueous buffer at pH 7,531^a nm
same,ΦFL,[1]; aqueous buffer at pH 7,0.66
same,τFL,[1]; aqueous buffer at pH 7,3.2 ns
same,λem,[4],531 nm
same,λex,[4],506 nm
same,"Γfl, remaining fluorescence after 5 measurement cycles",[4],50%
same,"Rfl, t=0, residual fluorescence after the pump-pulse",[4],25%
same,Structures stained in living cells,[2]; 50 μg dye/ml,Dim cytoplasmatic stain with dots
same,Structures stained in living cells,[2]; 500 μg dye/ml,Nearly no stain visible.
"carboxy rhodamine 110 [Rh110-CO2, reference compound]",change of diffusion time with excitation intensity (bleaching),[5],shortening of the apparent diffusion characteristic time
COC(=O)CCN(C)C(=O)c1ccccc1-c1c2ccc(=NCC(F)(F)F)cc-2oc2cc(NCC(F)(F)F)ccc12 [Compound 44-Me],ABSORPTION ε,[1]; methanol,87000 M⁻¹ cm⁻¹
same,ABSORPTION λMAX,[1]; methanol,512^b nm
same,EMISSION λMAX,[1]; methanol,534^b nm
same,λem,[4],534 nm
same,λex,[4],512 nm
same,"Γfl, remaining fluorescence after 5 measurement cycles",[4],90%
same,"Rfl, t=0, residual fluorescence after the pump-pulse",[4],8%
same,Structures stained in living cells,[2]; 500 μg dye/ml,Cytoplasmatic stain visible.
"Nc1c(F)cc2c(c1S(=O)(=O)O)Oc1c(cc(F)c(N)c1S(=O)(=O)O)C21OC(=O)c2ccccc21 [Compound 12, 2,7-Difluoro-4,5-disulforhodamine]",ABSORPTION λMAX,[1]; aqueous buffer at pH 7,488 nm
same,EMISSION λMAX,[1]; aqueous buffer at pH 7,512 nm
same,ΦFL,[1]; aqueous buffer at pH 7,0.89
same,τFL,[1]; aqueous buffer at pH 7,4.0 ns
same,ABSORPTION ε,[1]; methanol,42000 M⁻¹ cm⁻¹
same,ABSORPTION λMAX,[1]; methanol,498 nm
same,EMISSION λMAX,[1]; methanol,514 nm
same,λem,[4],512 nm
same,λex,[4],488 nm
same,"Γfl, remaining fluorescence after 5 measurement cycles",[4],20%
same,"Rfl, t=0, residual fluorescence after the pump-pulse",[4],8%
same,Structures stained in living cells,[2]; 500 μg dye/ml,Nearly no stain visible.
CCN=c1cc2oc3cc(NCC)c(C)cc3c(-c3ccccc3C(=O)OCC)c-2cc1C.Cl [rhodamine 6G],Photobleaching quantum yields,[6],12 ×10^−7
CN(CCC(=O)O)C(=O)c1ccccc1-c1c2ccc(=NCC(F)(F)F)c(S(=O)(=O)O)c-2oc2c(S(=O)(=O)O)c(NCC(F)(F)F)ccc12 [Compound 16a],ABSORPTION λMAX,[1]; aqueous buffer at pH 7,512 nm
same,EMISSION λMAX,[1]; aqueous buffer at pH 7,530 nm
same,ΦFL,[1]; aqueous buffer at pH 7,0.86
same,τFL,[1]; aqueous buffer at pH 7,4.1 ns
same,ABSORPTION ε,[1]; methanol,74000 M⁻¹ cm⁻¹
same,ABSORPTION λMAX,[1]; methanol,517 nm
same,EMISSION λMAX,[1]; methanol,536 nm
same,λem,[4],530 nm
same,λex,[4],512 nm
same,"Γfl, remaining fluorescence after 5 measurement cycles",[4],35%
same,"Rfl, t=0, residual fluorescence after the pump-pulse",[4],25%
same,Structures stained in living cells,[2]; 500 μg dye/ml,Cellular stain visible; bright
same,change in emission on irradiation,[3],without any significant changes in their emission
O=C(O)CSc1c(F)c(F)c(C(=O)O)c(-c2c3cc(F)c(=O)cc-3oc3cc(O)c(F)cc23)c1F [Compound 9],bathochromic shift,[7]; compared with compounds 7 and 8,ca. 10 nm
same,ε × 10^−4,[7]; [8],8.6
same,λem,[7]; [8],526 nm
same,λmax,[7]; [8],506 nm
5(6)-carboxyrhodamine 110 [Compound 2],ε × 10^−4,[7]; MeOH,7.8
same,λem,[7]; MeOH,532 nm
same,λmax,[7]; MeOH,504 nm
Nc1cc2c(cc1Cl)C1(OC(=O)c3ccccc31)c1cc(Cl)c(N)cc1O2 [Compound 5],shift of the absorption and emission curves to the red,"[7]; compared with compounds 1, 3 and 4",ca. 10 nm
same,ε × 10^−4,"[7]; water, pH = 7",7.1
same,λem,"[7]; water, pH = 7",525 nm
same,λmax,"[7]; water, pH = 7",502 nm
CN(CCC(=O)O)C(=O)c1ccccc1-c1c2ccc(=NCC(F)(F)F)cc-2oc2cc(NCC(F)(F)F)ccc12.Cl [Compound 14a],ABSORPTION ε,[1]; aqueous buffer at pH 7,57000 M⁻¹ cm⁻¹
same,ABSORPTION λMAX,[1]; aqueous buffer at pH 7,510 nm
same,EMISSION λMAX,[1]; aqueous buffer at pH 7,531 nm
same,ΦFL,[1]; aqueous buffer at pH 7,0.86
same,τFL,[1]; aqueous buffer at pH 7,4.2 ns
same,ABSORPTION λMAX,[1]; methanol,512 nm
same,EMISSION λMAX,[1]; methanol,534 nm
same,Structures stained in living cells,[2]; 500 μg dye/ml,Mitochondrial stain visible.
same,initial emission intensity retained,"[3]; after two hours of irradiation, 488 nm, 3 W/cm^2",about 90%
CN(C)c1ccc2c(-c3ccccc3C(=O)[O-])c3ccc(N(C)C)cc3[o+]c2c1 [tetramethyl rhodamine],stability relative to rhodamine 6G,[6]; high light intensities (up to 10^7 W/cm^2),4-5 times
same,Photobleaching quantum yields,[6],3.3 ×10^−7
5(6)-carboxyfluorescein [Compound 7],ε × 10^−4,"[7]; H2O, pH = 9",7.8^4*
same,λem,"[7]; H2O, pH = 9",517^4* nm
same,λmax,"[7]; H2O, pH = 9",492^4* nm
COC(=O)c1ccccc1-c1c2ccc(N)cc2[o+]c2cc(N)ccc12 [methyl ester of rhodamine 110],Photobleaching quantum yields,[6],6.6 ×10^−7
